From patent publication US20130274127A1, “GENE EXPRESSION MARKERS FOR PREDICTION OF RESPONSE TO PHOSPHOINOSITIDE 3-KINASE INHIBITORS” (GENOMIC HEALTH, INC., priority 2012, published 2013)
Read-outs that look alike come from different tables or passages of the source.

How the values were obtained:
OVCAR-5 = test: NCI-60 in vitro drug sensitivity testing (SRB); assay type: cell-based; conditions: Homo sapiens, OVCAR-5, read-out: GDC-0941 GI50
Description: (§1) Cell lines used in this study were obtained from the National Cancer Institute Developmental Therapeutics program (NCI DTP) and were maintained in RPMI 1640 media (Invitrogen, Grand Island, N.Y.) containing 10% Fetal Bovine Serum (ATCC, Manassas, Va.). Cell lines were used within six months of receipt from the NCI DTP, abrogating the need for reauthentication.
(§2) 14, 2010 and Aug. 9, 2010.

M14 = test: NCI-60 in vitro drug sensitivity testing (SRB); assay type: cell-based; conditions: Homo sapiens, M14, read-out: GDC-0941 GI50
Description: as §1, §2

SNB-75 = test: NCI-60 in vitro drug sensitivity testing (SRB); assay type: cell-based; conditions: Homo sapiens, SNB-75, read-out: GDC-0941 GI50
Description: as §1, §2

PC-3 = test: NCI-60 in vitro drug sensitivity testing (SRB); assay type: cell-based; conditions: Homo sapiens, PC-3, read-out: GDC-0941 GI50
Description: as §1, §2

T-47D = test: NCI-60 in vitro drug sensitivity testing (SRB); assay type: cell-based; conditions: Homo sapiens, T47D, read-out: GDC-0941 GI50
Description: as §1, §2

MDA-MB-468 = test: NCI-60 in vitro drug sensitivity testing (SRB); assay type: cell-based; conditions: Homo sapiens, MDA-MB-468, read-out: GDC-0941 GI50
Description: as §1, §2

HOP-62 = test: NCI-60 in vitro drug sensitivity testing (SRB); assay type: cell-based; conditions: Homo sapiens, HOP-62, read-out: GDC-0941 GI50
Description: as §1, §2

DU-145 = test: NCI-60 in vitro drug sensitivity testing (SRB); assay type: cell-based; conditions: Homo sapiens, DU-145, read-out: GDC-0941 GI50
Description: as §1, §2

NCI-H522 = test: NCI-60 in vitro drug sensitivity testing (SRB); assay type: cell-based; conditions: Homo sapiens, NCI-H522, read-out: GDC-0941 GI50
Description: as §1, §2

A549/ATCC = test: NCI-60 in vitro drug sensitivity testing (SRB); assay type: cell-based; conditions: Homo sapiens, read-out: GDC-0941 GI50
Description: as §1, §2

NCI-H460 = test: NCI-60 in vitro drug sensitivity testing (SRB); assay type: cell-based; conditions: Homo sapiens, NCI-H460, read-out: GDC-0941 GI50
Description: as §1, §2

A498 = test: NCI-60 in vitro drug sensitivity testing (SRB); assay type: cell-based; conditions: Homo sapiens, A498, read-out: GDC-0941 GI50
Description: as §1, §2

K-562 = test: NCI-60 in vitro drug sensitivity testing (SRB); assay type: cell-based; conditions: Homo sapiens, K562, read-out: GDC-0941 GI50
Description: as §1, §2

SW-620 = test: NCI-60 in vitro drug sensitivity testing (SRB); assay type: cell-based; conditions: Homo sapiens, SW-620, read-out: GDC-0941 GI50
Description: as §1, §2

SK-OV-3 = test: NCI-60 in vitro drug sensitivity testing (SRB); assay type: cell-based; conditions: Homo sapiens, SK-OV-3, read-out: GDC-0941 GI50
Description: as §1, §2

BT-549 = test: NCI-60 in vitro drug sensitivity testing (SRB); assay type: cell-based; conditions: Homo sapiens, BT-549, read-out: GDC-0941 GI50
Description: as §1, §2

SF-295 = test: NCI-60 in vitro drug sensitivity testing (SRB); assay type: cell-based; conditions: Homo sapiens, SF-295, read-out: GDC-0941 GI50
Description: as §1, §2

HCT-15 = test: NCI-60 in vitro drug sensitivity testing (SRB); assay type: cell-based; conditions: Homo sapiens, HCT-15, read-out: GDC-0941 GI50
Description: as §1, §2

786-0 = test: NCI-60 in vitro drug sensitivity testing (SRB); assay type: cell-based; conditions: Homo sapiens, 786-0, read-out: GDC-0941 GI50
Description: as §1, §2

UACC-257 = test: NCI-60 in vitro drug sensitivity testing (SRB); assay type: cell-based; conditions: Homo sapiens, UACC-257, read-out: GDC-0941 GI50
Description: as §1, §2

SR = test: NCI-60 in vitro drug sensitivity testing (SRB); assay type: cell-based; conditions: Homo sapiens, read-out: GDC-0941 GI50
Description: as §1, §2

HT29 = test: NCI-60 in vitro drug sensitivity testing (SRB); assay type: cell-based; conditions: Homo sapiens, HT-29, read-out: GDC-0941 GI50
Description: as §1, §2

U251 = test: NCI-60 in vitro drug sensitivity testing (SRB); assay type: cell-based; conditions: Homo sapiens, U-251, read-out: GDC-0941 GI50
Description: as §1, §2

IGROV1 = test: NCI-60 in vitro drug sensitivity testing (SRB); assay type: cell-based; conditions: Homo sapiens, IGROV-1, read-out: GDC-0941 GI50
Description: as §1, §2

OVCAR-8 = test: NCI-60 in vitro drug sensitivity testing (SRB); assay type: cell-based; conditions: Homo sapiens, OVCAR-8, read-out: GDC-0941 GI50
Description: as §1, §2

TK-10 = test: NCI-60 in vitro drug sensitivity testing (SRB); assay type: cell-based; conditions: Homo sapiens, TK-10, read-out: GDC-0941 GI50
Description: as §1, §2

OVCAR-4 = test: NCI-60 in vitro drug sensitivity testing (SRB); assay type: cell-based; conditions: Homo sapiens, OVCAR-4, read-out: GDC-0941 GI50
Description: as §1

MCF7 = test: NCI-60 in vitro drug sensitivity testing (SRB); assay type: cell-based; conditions: Homo sapiens, MCF7, read-out: GDC-0941 GI50
Description: as §1

MDA-MB-231 = test: NCI-60 in vitro drug sensitivity testing (SRB); assay type: cell-based; conditions: Homo sapiens, MDA-MB-231, read-out: GDC-0941 GI50
Description: as §1

[1] = system: NCI-60 tumor cell line collection; test: NCI-60 in vitro drug sensitivity testing, whole panel; assay type: cell-based, human; conditions: for GI50: Homo sapiens, all 60 NCI-60 cell lines
Description: The NCI-60 tumor cell line collection is a panel of 60 diverse human cancer cell lines.
as §1, §2

Q: For `CS(=O)(=O)N1CCN(Cc2cc3nc(-c4cccc5[nH]ncc45)nc(N4CCOCC4)c3s2)CC1` [GDC-0941], which GI50 (OVCAR-5) is on record?
A: 117 nM

Q: What about the GI50 (M14) of the same compound?
A: 871 nM

Q: And the GI50 (SNB-75)?
A: 14 nM

Q: What about the GI50 (PC-3) of the same compound?
A: 138 nM

Q: What about the GI50 (T-47D) of the same compound?
A: 11 nM

Q: What about the GI50 (MDA-MB-468) of the same compound?
A: 110 nM

Q: And the GI50 (HOP-62)?
A: 363 nM

Q: And the GI50 (DU-145)?
A: 355 nM

Q: What about the GI50 (NCI-H522) of the same compound?
A: 372 nM

Q: And the GI50 (A549/ATCC)?
A: 251 nM

Q: And the GI50 (NCI-H460)?
A: 204 nM

Q: And the GI50 (A498)?
A: 123 nM

Q: And the GI50 (K-562)?
A: 3470 nM

Q: What about the GI50 (SW-620) of the same compound?
A: 832 nM

Q: And the GI50 (SK-OV-3)?
A: 83 nM

Q: What about the GI50 (BT-549) of the same compound?
A: 32 nM

Q: What about the GI50 (SF-295) of the same compound?
A: 110 nM

Q: What about the GI50 (HCT-15) of the same compound?
A: 209 nM

Q: What about the GI50 (786-0) of the same compound?
A: 295 nM

Q: What about the GI50 (UACC-257) of the same compound?
A: 78 nM

Q: What about the GI50 (SR) of the same compound?
A: 1290 nM

Q: What about the GI50 (HT29) of the same compound?
A: 120 nM

Q: And the GI50 (U251)?
A: 1050 nM

Q: What about the GI50 (IGROV1) of the same compound?
A: 26 nM

Q: And the GI50 (OVCAR-8)?
A: 646 nM

Q: And the GI50 (TK-10)?
A: 550 nM

Q: And the GI50 (OVCAR-4)?
A: 3800 nM

Q: What about the GI50 (MCF7) of the same compound?
A: 55 nM

Q: And the GI50 (MDA-MB-231)?
A: 1480 nM

Q: And the GI50 ([1]; read-out: GI50 values, range over the panel)?
A: 11 to 3800 nM

Q: And the GI50 ([1]; read-out: Mean GI50 for all cell lines)?
A: 660 nM

Q: And the “Anti-proliferative activity across the panel” value ([1]; nine tumor types represented in the NCI-60 cell line panel)?
A: broad anti-proliferative activity
